Source: the NIST ThermoML archive (doi:10.1021/je100757w)
Several values for one entry are separate records, joined by “and”; a condition that tells them apart may be missing. Identical values can stand only once. Numbers after ± are expanded uncertainties.

Experiment: xn = mol fraction of the nth substance listed
Conditions: for surface tension liquid-gas: Ring tensiometer; for mass density: 101.3 kPa, Liquid

COCCOCCOCCOC [2,5,8,11-tetraoxadodecane] + O
Conditions	mass density [kg/m3]	surface tension liquid-gas
298.15 K, x1 = 0.0012	–	53.35 ± 0.89 mN/m
298.15 K, x1 = 0.0024	–	51.27 ± 0.87 mN/m
298.15 K, x1 = 0.0029	–	49.07 ± 0.85 mN/m
298.15 K, x1 = 0.0036	–	48.59 ± 0.84 mN/m
298.15 K, x1 = 0.0043	–	47.6 ± 0.83 mN/m
298.15 K, x1 = 0.0173	1006.22 ± 0.27	–
298.15 K, x1 = 0.0206	–	40.6 ± 0.78 mN/m
298.15 K, x1 = 0.0375	–	38.88 ± 0.77 mN/m
298.15 K, x1 = 0.0695	–	36.2 ± 0.75 mN/m
298.15 K, x1 = 0.0905	–	33.99 ± 0.74 mN/m
298.15 K, x1 = 0.0914	1019.65 ± 0.32	–
298.15 K, x1 = 0.1223	–	33.06 ± 0.74 mN/m
298.15 K, x1 = 0.163	–	32.87 ± 0.74 mN/m
298.15 K, x1 = 0.1739	1017.24 ± 0.34	–
298.15 K, x1 = 0.2731	1009.97 ± 0.36	–
298.15 K, x1 = 0.2911	–	32.23 ± 0.74 mN/m
298.15 K, x1 = 0.3468	1004.7 ± 0.38	–
298.15 K, x1 = 0.3517	–	31.66 ± 0.73 mN/m
298.15 K, x1 = 0.4515	998.25 ± 0.44	–
298.15 K, x1 = 0.4658	–	31.16 ± 0.74 mN/m
298.15 K, x1 = 0.5727	992.4 ± 0.55	–
298.15 K, x1 = 0.583	–	30.5 ± 0.7 mN/m
298.15 K, x1 = 0.6451	989.7 ± 0.62	–
298.15 K, x1 = 0.659	–	30.09 ± 0.74 mN/m
298.15 K, x1 = 0.7279	–	29.54 ± 0.75 mN/m
298.15 K, x1 = 0.7766	985.98 ± 0.77	–
298.15 K, x1 = 0.821	–	29.05 ± 0.75 mN/m
298.15 K, x1 = 0.8679	984.02 ± 0.89	–
298.15 K, x1 = 0.8823	–	28.52 ± 0.75 mN/m
298.15 K, x1 = 0.8977	983.45 ± 0.93	–
298.15 K, x1 = 0.9461	–	28.04 ± 0.75 mN/m
298.15 K, x1 = 0.9699	981.95 ± 1	–
298.15 K, x1 = 1	981.23 ± 1.1	27.56 ± 0.75 mN/m
308.15 K, x1 = 0.0009	–	53.01 ± 0.87 mN/m
308.15 K, x1 = 0.0017	–	50.04 ± 0.85 mN/m
308.15 K, x1 = 0.0026	–	47.96 ± 0.84 mN/m
308.15 K, x1 = 0.0039	–	45.41 ± 0.82 mN/m
308.15 K, x1 = 0.0109	–	41.72 ± 0.79 mN/m
308.15 K, x1 = 0.0173	1004.32 ± 0.27	–
308.15 K, x1 = 0.0218	–	40.14 ± 0.78 mN/m
308.15 K, x1 = 0.0353	–	38.28 ± 0.77 mN/m
308.15 K, x1 = 0.0882	–	36.04 ± 0.75 mN/m
308.15 K, x1 = 0.0914	1016.26 ± 0.31	–
308.15 K, x1 = 0.1214	–	34.06 ± 0.74 mN/m
308.15 K, x1 = 0.1739	1010.56 ± 0.32	–
308.15 K, x1 = 0.1767	–	33.08 ± 0.74 mN/m
308.15 K, x1 = 0.2497	–	32.48 ± 0.74 mN/m and 31.82 ± 0.73 mN/m
308.15 K, x1 = 0.2731	1001.13 ± 0.33	–
308.15 K, x1 = 0.34	–	31.44 ± 0.73 mN/m
308.15 K, x1 = 0.3468	995.27 ± 0.38	–
308.15 K, x1 = 0.4141	–	30.89 ± 0.73 mN/m
308.15 K, x1 = 0.4515	988.66 ± 0.46	–
308.15 K, x1 = 0.5272	–	30.74 ± 0.74 mN/m
308.15 K, x1 = 0.5727	982.92 ± 0.57	–
308.15 K, x1 = 0.5837	–	30.15 ± 0.74 mN/m
308.15 K, x1 = 0.6451	980.17 ± 0.65	–
308.15 K, x1 = 0.7176	–	29.76 ± 0.75 mN/m
308.15 K, x1 = 0.7766	976.39 ± 0.8	–
308.15 K, x1 = 0.8234	–	29.38 ± 0.75 mN/m
308.15 K, x1 = 0.8679	974.51 ± 0.91	–
308.15 K, x1 = 0.8977	973.95 ± 0.95	–
308.15 K, x1 = 0.9458	–	28.74 ± 0.76 mN/m
308.15 K, x1 = 0.9699	972.46 ± 1.1	–
308.15 K, x1 = 1	971.71 ± 1.1	28.48 ± 0.76 mN/m
318.15 K, x1 = 0.0014	–	51.81 ± 0.87 mN/m
318.15 K, x1 = 0.0021	–	47.47 ± 0.84 mN/m
318.15 K, x1 = 0.0028	–	46.1 ± 0.84 mN/m
318.15 K, x1 = 0.0039	–	44.63 ± 0.81 mN/m
318.15 K, x1 = 0.01	–	41.37 ± 0.79 mN/m
318.15 K, x1 = 0.0173	998.53 ± 0.26	–
318.15 K, x1 = 0.0212	–	39.06 ± 0.77 mN/m
318.15 K, x1 = 0.034	–	37.85 ± 0.76 mN/m
318.15 K, x1 = 0.0543	–	35.26 ± 0.75 mN/m
318.15 K, x1 = 0.0791	–	32.67 ± 0.74 mN/m
318.15 K, x1 = 0.0849	–	32.5 ± 0.73 mN/m
318.15 K, x1 = 0.0914	1007.41 ± 0.29	–
318.15 K, x1 = 0.0917	–	32.42 ± 0.73 mN/m
318.15 K, x1 = 0.122	–	32.27 ± 0.73 mN/m
318.15 K, x1 = 0.1739	1001.45 ± 0.29	–
318.15 K, x1 = 0.1848	–	32.14 ± 0.73 mN/m
318.15 K, x1 = 0.2728	–	31.26 ± 0.73 mN/m
318.15 K, x1 = 0.2731	992.1 ± 0.35	–
318.15 K, x1 = 0.3289	–	31.05 ± 0.73 mN/m
318.15 K, x1 = 0.3468	986.06 ± 0.4	–
318.15 K, x1 = 0.3776	–	30.83 ± 0.73 mN/m
318.15 K, x1 = 0.4515	979.25 ± 0.49	–
318.15 K, x1 = 0.4688	–	30.3 ± 0.73 mN/m
318.15 K, x1 = 0.5727	973.34 ± 0.6	–
318.15 K, x1 = 0.6451	970.59 ± 0.67	–
318.15 K, x1 = 0.6611	–	29.59 ± 0.74 mN/m
318.15 K, x1 = 0.7234	–	29.4 ± 0.74 mN/m
318.15 K, x1 = 0.7766	966.82 ± 0.82	–
318.15 K, x1 = 0.8102	–	28.99 ± 0.75 mN/m
318.15 K, x1 = 0.8562	–	28.68 ± 0.75 mN/m
318.15 K, x1 = 0.8679	964.92 ± 0.93	–
318.15 K, x1 = 0.8915	–	28.3 ± 0.75 mN/m
318.15 K, x1 = 0.8977	964.34 ± 0.97	–
318.15 K, x1 = 0.9699	962.91 ± 1.1	–
318.15 K, x1 = 1	962.19 ± 1.1	27.83 ± 0.76 mN/m
